Data as given in ChEMBL document CHEMBL1201862, “PubChem BioAssay data set” (2004).
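Protocol summary: plate cells (96-well), add compound at 5 concentrations, incubate 48 h, interpolate endpoints linearly. The concentration for 50% growth inhibition is given as GI50.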 Activity calls are given as the source filed them. Rule as the data show it: active = GI50 up to about 1.1 µM and inactive = higher.

Columns and labels:
Test in all cases: inhibition of tumour cell growth, NCI panel, 48 h
[1] = system: MDA-MB-435
[2] = system: SK-MEL-5
[3] = system: NCI/ADR-RES
[4] = system: OVCAR-3
[5] = system: SF-268
[6] = system: DU-145
[7] = system: SK-MEL-28
[8] = system: HCT-15
[9] = system: HT-29
[10] = system: NCI-H23
[11] = system: HCT-116
[12] = system: PC-3
[13] = system: HCC 2998
[14] = system: Malme-3M
[15] = system: SK-MEL-2
[16] = system: EKVX
[17] = system: K562
[18] = system: SW-620
[19] = system: NCI-H226
[20] = system: NCI-H522

Row | SMILES | GI50 [1] | GI50 [2] | GI50 [3] | GI50 [4] | GI50 [5] | GI50 [6] | GI50 [7] | GI50 [8] | GI50 [9] | GI50 [10] | GI50 [11] | GI50 [12] | GI50 [13] | GI50 [14] | GI50 [15] | GI50 [16] | GI50 [17] | GI50 [18] | GI50 [19] | GI50 [20]
1 | Nc1cccc(OCC2CCCN3CCCCC23)c1 (configuration not stated) | 22.5 µM (inactive) | 18.9 µM (inactive) | 19.3 µM (inactive) | 16.9 µM (inactive) | 20.1 µM (inactive) | 17.5 µM (inactive) | 19.1 µM (inactive) | 17.5 µM | 12.6 µM (inactive) | 17.7 µM (inactive) | 16.3 µM (inactive) | 16.9 µM (inactive) | 13.7 µM (inactive) | 23.5 µM (inactive) | 20.1 µM (inactive) | 17.2 µM (inactive) | 22 µM (inactive) | 21.3 µM (inactive) | 41.7 µM (inactive) | –
2 | c1ccc(CNCCN2CCNCC2)nc1 | > 100 µM (inactive) | > 100 µM (inactive) | > 100 µM (inactive) | > 100 µM (inactive) | > 100 µM (inactive) | – | > 100 µM (inactive) | > 100 µM | > 100 µM (inactive) | > 100 µM (inactive) | > 100 µM (inactive) | > 100 µM (inactive) | – | > 100 µM (inactive) | > 100 µM (inactive) | > 100 µM (inactive) | > 100 µM (inactive) | > 100 µM (inactive) | > 100 µM (inactive) | > 100 µM (inactive)
3 | COc1cc(/N=N/N(C)C)c(C(C)c2c3cc(OC)c(OC)cc3cc[n+]2C)cc1OC (configuration not stated) | 40.7 µM (inactive) | 21.4 µM (inactive) | > 100 µM (inactive) | 26.7 µM (inactive) | 31.3 µM (inactive) | 62.7 µM (inactive) | – | > 100 µM | 35.4 µM (inactive) | 41.6 µM (inactive) | 30 µM (inactive) | 38.5 µM (inactive) | 34.6 µM (inactive) | 34.4 µM (inactive) | 24.9 µM (inactive) | > 100 µM (inactive) | 18.1 µM (inactive) | 85.7 µM (inactive) | 78.5 µM (inactive) | –
4 | O=C(N/C(=C\c1cccc([N+](=O)[O-])c1)c1nc2ccccc2[nH]1)c1ccccc1 | – | 41.1 µM (inactive) | – | 51.2 µM (inactive) | 45.3 µM (inactive) | – | 18.3 µM (inactive) | 26.1 µM | 28.9 µM (inactive) | 49.1 µM (inactive) | 59.8 µM (inactive) | – | 94.4 µM (inactive) | > 100 µM (inactive) | 66.7 µM (inactive) | > 100 µM (inactive) | 50.5 µM (inactive) | > 100 µM (inactive) | 51.6 µM (inactive) | 36.8 µM (inactive)
5 | COc1cc2c(cc1OC)C1CN3C(=O)CCC3C(O)C1c1cc(OC)c(OC)cc1-2 (configuration not stated) | > 100 µM (inactive) | > 100 µM (inactive) | > 100 µM (inactive) | – | > 100 µM (inactive) | > 100 µM (inactive) | > 100 µM (inactive) | > 100 µM | > 100 µM (inactive) | > 100 µM (inactive) | > 100 µM (inactive) | – | > 100 µM (inactive) | > 100 µM (inactive) | > 100 µM (inactive) | > 100 µM (inactive) | > 100 µM (inactive) | > 100 µM (inactive) | – | > 100 µM (inactive)
6 | CC1(C)OB(O)OC1(C)C | – | > 100 µM (inactive) | – | > 100 µM (inactive) | > 100 µM (inactive) | – | > 100 µM (inactive) | > 100 µM | > 100 µM (inactive) | > 100 µM (inactive) | > 100 µM (inactive) | – | > 100 µM (inactive) | > 100 µM (inactive) | > 100 µM (inactive) | > 100 µM (inactive) | > 100 µM (inactive) | > 100 µM (inactive) | > 100 µM (inactive) | > 100 µM (inactive)
7 | OC1CSc2nc3ccccc3n2C1 (configuration not stated) | > 100 µM (inactive) | > 100 µM (inactive) | > 100 µM (inactive) | > 100 µM (inactive) | > 100 µM (inactive) | > 100 µM (inactive) | – | > 100 µM | > 100 µM (inactive) | > 100 µM (inactive) | > 100 µM (inactive) | > 100 µM (inactive) | > 100 µM (inactive) | > 100 µM (inactive) | – | > 100 µM (inactive) | > 100 µM (inactive) | > 100 µM (inactive) | > 100 µM (inactive) | –
8 | CC(C(=O)N1C(=O)N(C(=O)[C@H](C)C(O)c2ccccc2)[C@H](c2ccccc2)[C@H]1c1ccccc1)[C@@H](O)c1ccccc1 (some centres not stated) | 26.2 µM (inactive) | 14.9 µM (inactive) | – | – | 38.2 µM (inactive) | 50.5 µM (inactive) | > 100 µM (inactive) | 45.7 µM | 36.6 µM (inactive) | 44.4 µM (inactive) | 34.2 µM (inactive) | 9.79 µM (inactive) | 36.7 µM (inactive) | – | 16.9 µM (inactive) | 21.1 µM (inactive) | 17.5 µM (inactive) | 45.2 µM (inactive) | 27 µM (inactive) | 30.3 µM (inactive)
9 | CCOc1ccc2[nH]c3c(C)c4ccncc4c(C)c3c2c1 | – | 1.51 µM (inactive) | – | 4.27 µM (inactive) | 1.18 µM (inactive) | – | 1.91 µM (inactive) | 0.448 µM | 0.71 µM (active) | 1.45 µM (inactive) | 0.486 µM (active) | – | 1.42 µM (inactive) | 1.41 µM (inactive) | 1.19 µM (inactive) | 1.46 µM (inactive) | 0.377 µM (active) | 0.466 µM (active) | 1.82 µM (inactive) | 1.45 µM (inactive)
10 | O=C1C2CCCC2N1Cc1ccccc1 (configuration not stated) | > 100 µM (inactive) | > 100 µM (inactive) | > 100 µM (inactive) | > 100 µM (inactive) | > 100 µM (inactive) | > 100 µM (inactive) | – | > 100 µM | > 100 µM (inactive) | > 100 µM (inactive) | > 100 µM (inactive) | – | > 100 µM (inactive) | – | – | > 100 µM (inactive) | > 100 µM (inactive) | > 100 µM (inactive) | > 100 µM (inactive) | > 100 µM (inactive)
11 | NC(c1ccccc1)(C(F)(F)F)P1(=O)OC(=O)c2ccccc2O1 (configuration not stated) | > 100 µM (inactive) | 8.07 µM (inactive) | > 100 µM (inactive) | > 100 µM (inactive) | > 100 µM (inactive) | > 100 µM (inactive) | > 100 µM (inactive) | > 100 µM | > 100 µM (inactive) | > 100 µM (inactive) | > 100 µM (inactive) | > 100 µM (inactive) | > 100 µM (inactive) | – | > 100 µM (inactive) | > 100 µM (inactive) | > 100 µM (inactive) | > 100 µM (inactive) | > 100 µM (inactive) | –
12 | CN(C)CCCNc1cnc2cc3ccccc3cc2n1 | 24.5 µM (inactive) | 19.6 µM (inactive) | – | 17.6 µM (inactive) | 23.8 µM (inactive) | 41 µM (inactive) | 22.6 µM (inactive) | 18.4 µM | 15 µM (inactive) | 25.1 µM (inactive) | 32.8 µM (inactive) | 15.4 µM (inactive) | 17.2 µM (inactive) | 14.1 µM (inactive) | 19.5 µM (inactive) | 28 µM (inactive) | 25.4 µM (inactive) | 37.4 µM (inactive) | 16.8 µM (inactive) | 19.8 µM (inactive)
